The target of one assay is T1, GtfB (Streptococcus mutans, UniProt P08987).
T1 construct: secreted enzyme from culture supernatant of S. milleri KSB8 carrying gtfB of S. mutans GS-5; purified to near homogeneity by hydroxyapatite chromatography
The assay is described as follows: incorporation of […]-glucose from labelled sucrose into glucans, scintillation counting. In kind it is biochemical.

The target in the next assay is T2, GtfC (Streptococcus mutans, UniProt P13470).
T2 construct: secreted enzyme from culture supernatant of S. mutans WHB 410 (expresses gtfC only); purified to near homogeneity by hydroxyapatite chromatography
Described as above. The assay is classed as biochemical.

A word on the inhibition: it is the change of the read-out against control, counted positive when it falls. Low values mean little suppression, high ones strong suppression.

T1 sequence (P08987 35-1476): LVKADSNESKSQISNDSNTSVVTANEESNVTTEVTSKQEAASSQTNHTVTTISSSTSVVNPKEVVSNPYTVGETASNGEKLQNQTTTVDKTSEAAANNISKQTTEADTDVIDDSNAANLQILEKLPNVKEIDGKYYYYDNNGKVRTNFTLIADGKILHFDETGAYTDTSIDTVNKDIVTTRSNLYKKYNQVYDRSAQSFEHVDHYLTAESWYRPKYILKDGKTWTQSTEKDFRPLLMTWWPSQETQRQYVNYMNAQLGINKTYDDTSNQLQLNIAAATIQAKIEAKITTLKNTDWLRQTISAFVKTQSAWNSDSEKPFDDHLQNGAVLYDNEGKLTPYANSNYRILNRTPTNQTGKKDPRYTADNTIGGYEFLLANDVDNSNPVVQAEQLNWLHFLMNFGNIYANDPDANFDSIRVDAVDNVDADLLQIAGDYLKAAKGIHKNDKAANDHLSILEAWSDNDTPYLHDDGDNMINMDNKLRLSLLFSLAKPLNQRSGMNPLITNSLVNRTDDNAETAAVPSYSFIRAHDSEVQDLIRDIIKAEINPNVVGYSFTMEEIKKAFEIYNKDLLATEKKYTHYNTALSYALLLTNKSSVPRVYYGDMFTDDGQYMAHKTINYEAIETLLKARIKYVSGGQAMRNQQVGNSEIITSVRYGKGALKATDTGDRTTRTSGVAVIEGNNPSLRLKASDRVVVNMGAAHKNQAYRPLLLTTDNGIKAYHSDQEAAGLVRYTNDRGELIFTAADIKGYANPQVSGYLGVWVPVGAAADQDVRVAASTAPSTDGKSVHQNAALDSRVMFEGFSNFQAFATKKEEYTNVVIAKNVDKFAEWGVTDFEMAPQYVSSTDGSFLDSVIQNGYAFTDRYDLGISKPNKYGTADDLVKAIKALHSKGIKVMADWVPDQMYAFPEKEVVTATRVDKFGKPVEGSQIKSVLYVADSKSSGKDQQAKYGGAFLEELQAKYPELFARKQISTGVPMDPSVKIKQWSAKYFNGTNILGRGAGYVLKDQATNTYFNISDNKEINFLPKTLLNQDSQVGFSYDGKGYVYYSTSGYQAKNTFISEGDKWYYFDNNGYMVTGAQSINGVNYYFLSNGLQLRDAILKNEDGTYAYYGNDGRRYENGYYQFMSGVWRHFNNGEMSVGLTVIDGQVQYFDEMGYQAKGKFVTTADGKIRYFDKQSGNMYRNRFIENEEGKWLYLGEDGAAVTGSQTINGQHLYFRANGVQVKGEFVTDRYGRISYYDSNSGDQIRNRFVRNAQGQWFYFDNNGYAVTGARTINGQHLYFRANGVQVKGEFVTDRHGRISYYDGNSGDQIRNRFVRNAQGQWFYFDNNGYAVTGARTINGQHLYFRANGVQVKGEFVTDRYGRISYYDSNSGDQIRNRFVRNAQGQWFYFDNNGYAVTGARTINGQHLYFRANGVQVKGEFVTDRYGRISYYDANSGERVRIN
T2 sequence (P13470 35-1455): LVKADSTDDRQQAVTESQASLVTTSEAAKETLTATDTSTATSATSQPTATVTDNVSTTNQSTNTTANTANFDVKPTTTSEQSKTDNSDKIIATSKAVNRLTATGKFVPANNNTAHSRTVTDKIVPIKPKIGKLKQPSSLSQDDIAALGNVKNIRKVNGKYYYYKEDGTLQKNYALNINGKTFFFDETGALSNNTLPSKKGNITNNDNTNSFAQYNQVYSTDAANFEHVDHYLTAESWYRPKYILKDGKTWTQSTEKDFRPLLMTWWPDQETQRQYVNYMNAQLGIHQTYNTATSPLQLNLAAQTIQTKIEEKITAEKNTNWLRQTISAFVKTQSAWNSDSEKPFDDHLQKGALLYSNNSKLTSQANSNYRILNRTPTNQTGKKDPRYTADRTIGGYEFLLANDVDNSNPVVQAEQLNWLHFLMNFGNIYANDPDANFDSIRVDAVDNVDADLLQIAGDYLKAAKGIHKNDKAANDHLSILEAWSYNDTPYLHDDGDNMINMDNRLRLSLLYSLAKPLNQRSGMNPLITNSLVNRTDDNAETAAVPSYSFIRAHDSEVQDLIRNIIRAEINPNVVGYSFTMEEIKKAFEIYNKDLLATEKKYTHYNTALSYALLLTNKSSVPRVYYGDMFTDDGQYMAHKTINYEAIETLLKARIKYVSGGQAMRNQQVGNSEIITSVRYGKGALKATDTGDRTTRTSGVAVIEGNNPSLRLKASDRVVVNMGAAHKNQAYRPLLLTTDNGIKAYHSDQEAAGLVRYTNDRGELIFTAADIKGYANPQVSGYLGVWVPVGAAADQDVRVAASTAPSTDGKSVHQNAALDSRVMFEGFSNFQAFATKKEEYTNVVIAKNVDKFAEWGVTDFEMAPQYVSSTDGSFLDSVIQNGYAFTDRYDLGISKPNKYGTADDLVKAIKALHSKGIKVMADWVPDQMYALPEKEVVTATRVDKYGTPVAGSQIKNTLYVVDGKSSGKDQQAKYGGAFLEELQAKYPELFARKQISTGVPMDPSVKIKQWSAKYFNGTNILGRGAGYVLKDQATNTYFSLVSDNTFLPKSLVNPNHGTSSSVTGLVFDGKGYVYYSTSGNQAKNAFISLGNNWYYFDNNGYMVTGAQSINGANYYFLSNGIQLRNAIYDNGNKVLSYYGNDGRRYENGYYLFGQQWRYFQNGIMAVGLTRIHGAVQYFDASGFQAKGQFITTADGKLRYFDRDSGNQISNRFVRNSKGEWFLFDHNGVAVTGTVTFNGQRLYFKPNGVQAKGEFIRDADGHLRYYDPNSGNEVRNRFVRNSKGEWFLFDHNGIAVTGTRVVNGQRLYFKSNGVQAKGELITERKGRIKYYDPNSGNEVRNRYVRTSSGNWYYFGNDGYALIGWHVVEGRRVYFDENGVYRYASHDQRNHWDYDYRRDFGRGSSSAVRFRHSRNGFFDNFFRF

For `COc1c(O)cc2oc3cc(O)c(CC=C(C)C)c(O)c3c(=O)c2c1CC=C(C)C` [αMG, α-mangostin], the inhibition at 150 µM at GtfB and on GtfC was over 70% each time.

For the origin of these results see article PMC4211880, “α-Mangostin Disrupts the Development of Streptococcus mutans Biofilms and Facilitates Its Mechanical Removal” (PLoS ONE, 2014).
